The test concerns HBsAg. Put plainly: HBsAg assay. The following applies: Hepatitis B virus, HepG2.2.15, 144 h, read-out: sAg EC50, μM, HepG2.2.15 cells, day 6. It is filed as cell-based, hepatitis B virus. The method, then:
Inhibition of HBsAg was determined in HepG2.2.15 cells. Cells were maintained in culture medium containing 10% fetal calf serum, […], Glutamine, penicillin/streptomycin. Cells were seeded in 96-well collagen-coated plate at a density of 30,000 cells/well. Serially diluted compounds were added to cells next day at the final DMSO concentration of 0.5%. Cells were incubated with compounds for 2-3 days, after which medium was removed. Fresh medium containing compounds was added to cells for additional 3-4 days. At day 6 after exposure of compounds, supernatant was collected, the HBsAg immunoassay (microplate-based chemiluminescence immunoassay kits, CLIA, Autobio Diagnosics Co., Zhengzhou, China, Catalog # CL0310-2) was used to determine the level of HBsAg according to manufactory instruction. Dose-response curves were generated and the EC50 value (effective concentrations that achieved 50% inhibitory effect) were determined using XLfit software. In addition, cells were seeded at a density of 5,000 cells/well for determination of cell viability in the presence and absence of compounds by using CellTiter-Glo reagent (Promega). Tables 1-3 show EC50 values obtained by the HBsAg assay for selected compounds.
As a reminder, the EC50 is the concentration that produces a half-maximal response. With `COc1ccc2c(c1)OC[C@@H](C(C)C)n1cc(C(=O)O)c(=O)cc1-2` [Example 17, (R)-7-Isopropyl-3-methoxy-11-oxo-6,7-dihydro-11H-benzo[f]pyrido[1,2-d][1,4]oxazepine-10-carboxylic acid], the EC50 amounted to 0.88 µM.

Consider `COc1cc2c(cc1OC)-c1cc(=O)c(C(=O)O)cn1C(C(C)C)CC2` (centres unmarked) [Example 19, 6-Isopropyl-10,11-dimethoxy-2-oxo-2,6,7,8-tetrahydrobenzo[c]pyrido[1,2-a]azepine-3-carboxylic acid], for which the half-maximal effective concentration (EC50) was found to be 0.027 µM.

Take `COCCCOc1cc2c(nc1OC)-c1cc(=O)c(C(=O)O)cn1C(C(C)C)C2` (centres unmarked) [Example 20, 6-Isopropyl-2-methoxy-3-(3-methoxypropoxy)-10-oxo-5,10-dihydro-6H-pyrido[1,2-h][1,7]naphthyridine-9-carboxylic acid]: the EC50 worked out at 0.005 µM.

Turning to `COc1cc2c(nc1OC)-c1cc(=O)c(C(=O)O)cn1C(C(C)C)C2` (centres unmarked) [Example 23, 6-Isopropyl-2,3-dimethoxy-10-oxo-5,10-dihydro-6H-pyrido[1,2-h][1,7]naphthyridine-9-carboxylic acid], the EC50 came out at 0.019 µM.

Turning to `COCCCOc1cc2c(nc1OC)-c1c(F)c(=O)c(C(=O)O)cn1[C@H](C(C)C)C2` [Example 26, (S)-11-Fluoro-6-isopropyl-2-methoxy-3-(3-methoxypropoxy)-10-oxo-5,10-dihydro-6H-pyrido[1,2-h][1,7]naphthyridine-9-carboxylic acid], the half-maximal effective concentration (EC50) was determined as 0.002 µM.

For the molecule `COCCCOc1cc2c(cc1Cl)-c1cc(=O)c(C(=O)O)cn1[C@H](C(C)C)CO2` [Example 27, (R)-2-Chloro-7-isopropyl-3-(3-methoxypropoxy)-11-oxo-6,7-dihydro-11H-benzo[f]pyrido[1,2-d][1,4]oxazepine-10-carboxylic acid], the EC50 was found to be 0.011 µM.

As to `COCCCOc1cc2c(cc1Cl)-c1cc(=O)c(C(=O)O)cn1[C@@H](C(C)C)CO2` [Example 28, (S)-2-Chloro-7-isopropyl-3-(3-methoxypropoxy)-11-oxo-6,7-dihydro-11H-benzo[f]pyrido[1,2-d][1,4]oxazepine-10-carboxylic acid], the EC50 was determined as 0.46 µM.

As for `COCCOc1cc2c(cc1Cl)-c1cc(=O)c(C(=O)O)cn1C(C(C)C)CO2` (centres unmarked) [Example 29, 2-Chloro-7-isopropyl-3-(2-methoxyethoxy)-11-oxo-6,7-dihydro-11H-benzo[f]pyrido[1,2-d][1,4]oxazepine-10-carboxylic acid], the EC50 was found to be 0.065 µM.

`CCOC(=O)c1cn2c(cc1=O)-c1cc(Cl)c(O)cc1OCC2C(C)C` (centres unmarked) [Example 32, Ethyl 2-chloro-3-hydroxy-7-isopropyl-11-oxo-6,7-dihydro-11H-benzo[f]pyrido[1,2-d][1,4]oxazepine-10-carboxylate]: the half-maximal effective concentration (EC50) came out at 22 µM.

Take `COCCCOc1cc2c(cc1Cl)-c1cc(=O)c(C(=O)O)cn1C(C(C)C)CO2` (centres unmarked) [Example 33, 2-Chloro-7-isopropyl-3-(3-methoxypropoxy)-11-oxo-6,7-dihydro-11H-benzo[f]pyrido[1,2-d][1,4]oxazepine-10-carboxylic acid]: the EC50 was determined as 0.029 µM.

In the case of `CC(C)[C@@H]1COc2cc(OCC(F)(F)F)c(Cl)cc2-c2cc(=O)c(C(=O)O)cn21` [Example 34, (R)-2-Chloro-7-isopropyl-11-oxo-3-(2,2,2-trifluoroethoxy)-6,7-dihydro-11H-benzo[f]pyrido[1,2-d][1,4]oxazepine-10-carboxylic acid], the 50% effective concentration (EC50) was 0.086 µM.

In the case of `CC(C)[C@@H]1COc2cc(OCC3CC3)c(Cl)cc2-c2cc(=O)c(C(=O)O)cn21` [Example 35, (R)-2-Chloro-3-(cyclopropylmethoxy)-7-isopropyl-11-oxo-6,7-dihydro-11H-benzo[f]pyrido[1,2-d][1,4]oxazepine-10-carboxylic acid], the EC50 turned out to be 0.033 µM.

For the molecule `CC(C)[C@@H]1COc2cc(OCCCO)c(Cl)cc2-c2cc(=O)c(C(=O)O)cn21` [Example 36, (R)-2-Chloro-3-(3-hydroxypropoxy)-7-isopropyl-11-oxo-6,7-dihydro-11H-benzo[f]pyrido[1,2-d][1,4]oxazepine-10-carboxylic acid], the EC50 is 0.019 µM.

For `CC(C)[C@@H]1COc2cc(OCC(C)(C)CO)c(Cl)cc2-c2cc(=O)c(C(=O)O)cn21` [Example 37, (R)-2-Chloro-3-(3-hydroxy-2,2-dimethylpropoxy)-7-isopropyl-11-oxo-6,7-dihydro-11H-benzo[f]pyrido[1,2-d][1,4]oxazepine-10-carboxylic acid], the half-maximal effective concentration (EC50) was determined as 0.012 µM.

As for `COCCCCOc1cc2c(cc1Cl)-c1cc(=O)c(C(=O)O)cn1[C@H](C(C)C)CO2` [Example 38, (R)-2-Chloro-7-isopropyl-3-(4-methoxybutoxy)-11-oxo-6,7-dihydro-11H-benzo[f]pyrido[1,2-d][1,4]oxazepine-10-carboxylic acid], the half-maximal effective concentration (EC50) is 0.017 µM.

With `CC(C)[C@@H]1COc2cc(OCCCCO)c(Cl)cc2-c2cc(=O)c(C(=O)O)cn21` [Example 39, (R)-2-Chloro-3-(4-hydroxybutoxy)-7-isopropyl-11-oxo-6,7-dihydro-11H-benzo[f]pyrido[1,2-d][1,4]oxazepine-10-carboxylic acid], the EC50 stood at 0.014 µM.

For `CC(C)[C@@H]1COc2cc(OCCCN3CCOCC3)c(Cl)cc2-c2cc(=O)c(C(=O)O)cn21` [Example 40, (R)-2-Chloro-7-isopropyl-3-(3-morpholinopropoxy)-11-oxo-6,7-dihydro-11H-benzo[f]pyrido[1,2-d][1,4]oxazepine-10-carboxylic acid], the half-maximal effective concentration (EC50) came to 0.14 µM.

In the case of `CC(C)[C@@H]1COc2cc(OCCOCCBr)c(Cl)cc2-c2cc(=O)c(C(=O)O)cn21` [Example 41, (R)-3-(2-(2-Bromoethoxy)ethoxy)-2-chloro-7-isopropyl-11-oxo-6,7-dihydro-11H-benzo[f]pyrido[1,2-d][1,4]oxazepine-10-carboxylic acid], the half-maximal effective concentration (EC50) is 0.1 µM.

On to `CC(C)[C@@H]1COc2cc(OCCCNC(=O)OC(C)(C)C)c(Cl)cc2-c2cc(=O)c(C(=O)O)cn21` [Example 42, (R)-3-(3-((tert-Butoxycarbonyl)amino)propoxy)-2-chloro-7-isopropyl-11-oxo-6,7-dihydro-11H-benzo[f]pyrido[1,2-d][1,4]oxazepine-10-carboxylic acid], for which the EC50 was determined as 0.042 µM.

For `COCCCOc1cc2c(cc1Cl)-c1cc(=O)c(C(=O)O)cn1[C@H](CCO)CO2` [Example 43, (R)-2-Chloro-7-(2-hydroxyethyl)-3-(3-methoxypropoxy)-11-oxo-6,7-dihydro-11H-benzo[f]pyrido[1,2-d][1,4]oxazepine-10-carboxylic acid], the EC50 came out at 0.35 µM.

In the case of `CC(C)COc1cc2c(cc1C1CC1)-c1cc(=O)c(C(=O)O)cn1[C@H](C(C)C)CO2` [Example 44, (R)-2-Cyclopropyl-3-isobutoxy-7-isopropyl-11-oxo-6,7-dihydro-11H-benzo[f]pyrido[1,2-d][1,4]oxazepine-10-carboxylic acid], the EC50 was determined as 0.006 µM.

As for `COCCCOc1cc2c(cc1C1CC1)-c1cc(=O)c(C(=O)O)cn1[C@H](C(C)C)CO2` [Example 45, (R)-2-Cyclopropyl-7-isopropyl-3-(3-methoxypropoxy)-11-oxo-6,7-dihydro-11H-benzo[f]pyrido[1,2-d][1,4]oxazepine-10-carboxylic acid], the half-maximal effective concentration (EC50) was found to be 0.006 µM.

As to `COCCCOc1cc2c(cc1C)-c1cc(=O)c(C(=O)O)cn1[C@H](C(C)C)CO2` [Example 46, (R)-7-Isopropyl-3-(3-methoxypropoxy)-2-methyl-11-oxo-6,7-dihydro-11H-benzo[f]pyrido[1,2-d][1,4]oxazepine-10-carboxylic acid], the half-maximal effective concentration (EC50) came out at 0.039 µM.

Regarding `CCc1cc2c(cc1OCCCOC)OC[C@@H](C(C)C)n1cc(C(=O)O)c(=O)cc1-2` [Example 47, (R)-2-Ethyl-7-isopropyl-3-(3-methoxypropoxy)-11-oxo-6,7-dihydro-11H-benzo[f]pyrido[1,2-d][1,4]oxazepine-10-carboxylic acid], the EC50 was 0.006 µM.

In the case of `C=Cc1cc2c(cc1OCCCOC)OC[C@@H](C(C)C)n1cc(C(=O)O)c(=O)cc1-2` [Example 48, (R)-7-Isopropyl-3-(3-methoxypropoxy)-11-oxo-2-vinyl-6,7-dihydro-11H-benzo[f]pyrido[1,2-d][1,4]oxazepine-10-carboxylic acid], the EC50 stood at 0.004 µM.

`Cc1cc2c(cc1OCC1CC1)OC[C@@H](C(C)C)n1cc(C(=O)O)c(=O)cc1-2` [Example 49, (R)-3-(Cyclopropylmethoxy)-7-isopropyl-2-methyl-11-oxo-6,7-dihydro-11H-benzo[f]pyrido[1,2-d][1,4]oxazepine-10-carboxylic acid]: the EC50 stood at 0.049 µM.

`CCc1cc2c(cc1OCC1CC1)OC[C@@H](C(C)C)n1cc(C(=O)O)c(=O)cc1-2` [Example 50, (R)-3-(Cyclopropylmethoxy)-2-ethyl-7-isopropyl-11-oxo-6,7-dihydro-11H-benzo[f]pyrido[1,2-d][1,4]oxazepine-10-carboxylic acid]: the EC50 was 0.011 µM.

As for `Cc1cc2c(cc1OCC(C)C)OC[C@@H](C(C)C)n1cc(C(=O)O)c(=O)cc1-2` [Example 51, (R)-3-Isobutoxy-7-isopropyl-2-methyl-11-oxo-6,7-dihydro-11H-benzo[f]pyrido[1,2-d][1,4]oxazepine-10-carboxylic acid], the EC50 is 0.015 µM.

In the case of `CCc1cc2c(cc1OCC(C)C)OC[C@@H](C(C)C)n1cc(C(=O)O)c(=O)cc1-2` [Example 52, (R)-2-Ethyl-3-isobutoxy-7-isopropyl-11-oxo-6,7-dihydro-11H-benzo[f]pyrido[1,2-d][1,4]oxazepine-10-carboxylic acid], the EC50 came out at 0.007 µM.

(Values after patent US11013726B2 (Arbutus Biopharma Corporation, priority 2016, dated 2021).)
